Experimental data as given in patent US10723750B2, “Sphingamide compounds and methods for binding iNKT cells” (La Jolla Institute for Allergy and Immunology, priority 2015, dated 2020).

What was measured:
[1] = tested on: iNKT cells in C57BL/6 mice; assay: Sphingamide competition with OCH in vivo, serum IL-4 and IFN-γ; parameters: species or system mouse; details: FIG. 9
Description: Cytokine levels were measured from blood serum using ELISA after 4 hours (IL-4) and 16 hours (IFN-γ).

[2] = tested on: murine iNKT hybridoma cells; assay: Sphingamide competition with OCH in vitro, APC-free recombinant mCD1d (IL-2 ELISA); type: cell-based, mouse; details: JG168 1-20 ug/ml mixed with 1 ug/ml OCH, FIG. 8
Description: For in vitro stimulation, murine iNKT hybridoma cells at 5×10^4 cells/well in 96-well plates were incubated with CD1d (loaded with OCH and the competing sphingamide) and levels of iNKT cell activation was monitored by measuring murine IL-2 secretion by ELISA.

[3] = cited from earlier work
[4] = tested on: murine iNKT hybridoma cells; assay: iNKT hybridoma activation, APC-free assay with recombinant mCD1d (IL-2 ELISA); type: cell-based, mouse; details: FIG. 5A/5D
Description: (§1) First, the present sphingamide compounds were tested to determine whether they activated iNKT cell hybridomas when the sphingamide was presented to the iNKT cell TCR by (a) an antigen presenting-cell (APC) free assay which uses recombinant mCD1d, (b) an A20 B-cell (an antigen presenting cell) expressing the wild-type (WT) mCD1d, or (c) an A20 B-cell expressing a tail-deleted mCD1d. The tail deleted mCD1d lacks the “YQDI” amino acid sorting motif required for routing CD1d to endosomes (for example, amino acid residues 314-317 of SEQ ID NO: 2 would be missing).
(§2) For in vitro stimulation, murine iNKT hybridoma cells at 5×10^4 cells/well in 96-well plates were stimulated with the 10^5 cells/well glycolipid pulsed BMDCs in cDMEM for 4, 16 or 24 hours at 37° C. with 0.05 μg/ml, 0.1 μg/ml, 0.5 μg/ml, 1 μg/ml, 2 μg/ml, or 5 μg/ml of lipid, and levels of murine IL-2 secretion were determined by ELISA.
The present sphingamide, or amide-lacking versions were tested to determine whether they activated iNKT cell hybridomas when the sphingamide was presented to the iNKT cell TCR by an antigen presenting-cell (APC) free assay which uses recombinant mCD1d. […]
For in vitro stimulation, murine iNKT hybridoma cells at 5×10^4 cells/well were added to the wells containing CD1d and incubated in the presence of 5% CO2 at 37° C. over night. Levels of murine IL-2 secretion were determined by ELISA.

[5] = tested on: murine iNKT hybridoma cells; assay: iNKT hybridoma activation, A20 B cells expressing tail-deleted mCD1d (IL-2 ELISA); type: cell-based, mouse; details: tail-deleted mCD1d A20 B cell, FIG. 5C
Description: as §1, §2
(§3) Tail-deleted mCD1d cannot recycle back into the cell, as the binding site for a required lipid loading factor has been deleted. (see Jin et al., Immunity 2009, 30(6):888-898 for a discussion of the model).

[6] = tested on: murine iNKT hybridoma cells; assay: iNKT hybridoma activation, A20 B cells expressing wild-type mCD1d (IL-2 ELISA); type: cell-based, mouse; details: A20/mCD1d wt, FIG. 5B
Description: as §1, §2, §3

Vα24+ human NKT cells = assay: Activation of human iNKT cells in vitro, GM-CSF release (sandwich ELISA); type: cell-based; details: glycolipid-pulsed PBMCs with Vα24+ human NKT cells, 24 h, FIG. 7
From the text: The isolation and expansion of human Vα24^+ NKT cell lines has been published previously (Rogers, P. R., Matsumoto, A., Naidenko, O., Kronenberg, M., Mikayama, T., and Kato, S. (2004) Expansion of human Vα24^+ NKT cells by repeated stimulation with KRN7000. J. Immunol. Methods 285, 197-214). Human donor peripheral blood mononuclear cells (PBMCs, 1-1.5×10^6/ml) were isolated and cultured in RPMI 1640 medium (Invitrogen) supplemented with 10% (v/v) FBS and 1% (v/v) Pen/Strep/glutamine (10,000 units of penicillin, 10 mg of streptomycin, 29.2 mg/ml L-glutamine; Invitrogen), and cultures were expanded by weekly re-stimulation with αGalCer-pulsed, irradiated PBMC and recombinant human IL-2.
PBMCs (1×10^5 per well) were pulsed with glycolipids, seeded in 96-well plates, and cultured in the presence of 5×10^4 Vα24^+ human NKT cells for 24 h. GM-CSF release was evaluated in a sandwich ELISA following the manufacturer's instructions (R&D Systems).

[7] = tested on: iNKT cells in C57BL/6 mice; assay: In vivo activation of iNKT cells, serum cytokines by ELISA; parameters: species or system mouse

CCCCCCCC(=O)N[C@@H](CO[C@H]1OC(CO)[C@H](O)C(O)[C@@H]1O)[C@H](O)[C@H](O)CCCC(=O)NCCCCCCc1ccccc1 (stereo partly drawn) [JG168]
activation of iNKT cells in vivo ([1]; 20 μg JG168 alone i.v.): did not activate iNKT cells in vivo | competition with OCH (serum IL-4 and IFN-γ) ([1]; 1, 5 or 20 μg JG168 + 1 μg OCH i.v.): no competition was observed | competition with OCH (IL-2 secretion) [2]: No competition was observed

CCCCCCCCCCCCCCCCCCCCCCCC(=O)N[C@@H](CO[C@H]1OC(CO)[C@H](O)C(O)C1O)[C@H](O)[C@H](O)CCCCC (stereo partly drawn) [OCH]
solubility in aqueous solutions [3]: poorly soluble

CCCCCCCCCCCCCC[C@@H](O)[C@@H](O)[C@H](CO[C@H]1OC(CO)[C@H](O)C(O)C1O)NC(=O)CCCCCCC (stereo partly drawn) [PBS-25]
solubility in aqueous solutions [3]: readily soluble | IL-2 secretion by iNKT hybridoma [4]: significant amount of IL-2 | IL-2 secretion by iNKT hybridoma [5]: significant amount of IL-2 | IL-2 secretion by iNKT hybridoma [6]: significant amount of IL-2

CCCCCCCCCCCCCCCCCCCCCCCCCC(=O)N[C@@H](CO[C@H]1O[C@H](CO)[C@H](O)[C@H](O)[C@H]1O)[C@H](O)[C@H](O)CCCCCCCCCCCCCC [α-GalCer, N-[(2S,3S,4R)-3,4-Dihydroxy-1-[(2S,3R,4S,5R,6R)-3,4,5-trihydroxy-6-(hydroxymethyl)oxan-2-yl]oxyoctadecan-2-yl]hexacosanamide]
solubility in aqueous solutions [3]: poorly soluble | GM-CSF secretion (Vα24+ human NKT cells): significant secretion of GMCSF at all doses | cytokines produced in vivo (IL-4 / IFN-γ) ([7]; 1 μg glycolipid injected i.v., FIG. 12): makes both | serum IL-4 ([7]; C57BL/6 mice, 5 μg glycolipid i.v., 4 hours): significant amounts | serum IFN-γ ([7]; C57BL/6 mice, 5 μg glycolipid i.v., 16 hours): significant amounts | IL-2 secretion by iNKT hybridoma [5]: did not stimulate IL-2 production | IL-2 secretion by iNKT hybridoma [6]: stimulated the secretion of IL-2
